Results on five molecules are retold here after ChEMBL document CHEMBL1201862, “PubChem BioAssay data set” (2004).

For assay [1], the target named is T1, Microphthalmia-associated transcription factor (Homo sapiens, UniProt O75030).
T1 sequence (O75030 whole entry): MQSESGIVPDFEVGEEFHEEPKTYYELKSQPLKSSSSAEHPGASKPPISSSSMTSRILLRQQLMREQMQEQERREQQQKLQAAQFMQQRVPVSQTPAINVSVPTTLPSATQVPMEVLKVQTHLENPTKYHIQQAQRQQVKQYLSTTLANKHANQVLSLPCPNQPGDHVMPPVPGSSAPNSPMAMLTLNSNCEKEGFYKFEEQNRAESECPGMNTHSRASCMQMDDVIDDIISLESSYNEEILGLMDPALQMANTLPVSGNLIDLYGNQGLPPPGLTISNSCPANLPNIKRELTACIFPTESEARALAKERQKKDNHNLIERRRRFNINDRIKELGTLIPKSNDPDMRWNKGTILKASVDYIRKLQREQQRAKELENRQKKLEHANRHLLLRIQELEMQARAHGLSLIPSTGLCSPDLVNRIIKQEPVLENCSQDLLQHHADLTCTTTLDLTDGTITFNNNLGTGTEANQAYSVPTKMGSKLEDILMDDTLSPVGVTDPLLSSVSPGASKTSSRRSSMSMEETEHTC
Kind of assay: reducers of TRPM1 reporter luminescence, concentration series – cell-based, SK-MEL-5, cherry-picked, set 3, MITF inhibitor project, dose response (AID 493073).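 Further: SK-MEL-5 melanoma cells with luciferase driven by the MITF target TRPM1 promoter.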 Format: functional.

In assay [2] the target is T2, Streptokinase A (Streptococcus pyogenes serotype M1, UniProt P10520).
T2 sequence (P10520 whole entry): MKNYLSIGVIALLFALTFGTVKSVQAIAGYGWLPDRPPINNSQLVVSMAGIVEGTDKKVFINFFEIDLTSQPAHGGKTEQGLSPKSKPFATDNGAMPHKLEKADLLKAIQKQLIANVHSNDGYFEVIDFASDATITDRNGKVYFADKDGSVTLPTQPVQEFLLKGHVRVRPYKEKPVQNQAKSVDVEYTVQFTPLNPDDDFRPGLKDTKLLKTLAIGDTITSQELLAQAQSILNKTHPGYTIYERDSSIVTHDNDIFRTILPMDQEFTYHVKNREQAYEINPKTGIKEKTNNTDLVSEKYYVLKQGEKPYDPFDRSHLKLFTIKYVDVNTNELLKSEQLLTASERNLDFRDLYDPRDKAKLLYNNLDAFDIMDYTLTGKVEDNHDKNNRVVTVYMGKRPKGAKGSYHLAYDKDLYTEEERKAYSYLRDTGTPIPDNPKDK
Kind of assay: viability-normalized secreted streptokinase activity reduction – plasminogen activation absorbance, OD405, dose response (AID 1914).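 Further: secreted streptokinase activity via plasminogen activation per viability signal from cell pellet.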 Format: functional, Streptococcus pyogenes M1 GAS.

Assay [3] has as its target Serine/threonine-protein kinase TBK1 (Homo sapiens, UniProt Q9UHD2). Nature of the assay: Navigating the Kinome. Panel member name: TBK1. Format: functional.
Assay [4] deals with Tyrosine-protein kinase receptor TYRO3 (Homo sapiens, UniProt Q06418). Format: functional.
The target of assay [5] is Aurora kinase A (Homo sapiens, UniProt O14965). Format: functional.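 Further: value from the Navigating the Kinome kinase panel profiling, panel entry STK6.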
Assay [6] has as its target T3, Tyrosine-protein kinase JAK3 (Homo sapiens, UniProt P52333).
T3 sequence (P52333 whole entry): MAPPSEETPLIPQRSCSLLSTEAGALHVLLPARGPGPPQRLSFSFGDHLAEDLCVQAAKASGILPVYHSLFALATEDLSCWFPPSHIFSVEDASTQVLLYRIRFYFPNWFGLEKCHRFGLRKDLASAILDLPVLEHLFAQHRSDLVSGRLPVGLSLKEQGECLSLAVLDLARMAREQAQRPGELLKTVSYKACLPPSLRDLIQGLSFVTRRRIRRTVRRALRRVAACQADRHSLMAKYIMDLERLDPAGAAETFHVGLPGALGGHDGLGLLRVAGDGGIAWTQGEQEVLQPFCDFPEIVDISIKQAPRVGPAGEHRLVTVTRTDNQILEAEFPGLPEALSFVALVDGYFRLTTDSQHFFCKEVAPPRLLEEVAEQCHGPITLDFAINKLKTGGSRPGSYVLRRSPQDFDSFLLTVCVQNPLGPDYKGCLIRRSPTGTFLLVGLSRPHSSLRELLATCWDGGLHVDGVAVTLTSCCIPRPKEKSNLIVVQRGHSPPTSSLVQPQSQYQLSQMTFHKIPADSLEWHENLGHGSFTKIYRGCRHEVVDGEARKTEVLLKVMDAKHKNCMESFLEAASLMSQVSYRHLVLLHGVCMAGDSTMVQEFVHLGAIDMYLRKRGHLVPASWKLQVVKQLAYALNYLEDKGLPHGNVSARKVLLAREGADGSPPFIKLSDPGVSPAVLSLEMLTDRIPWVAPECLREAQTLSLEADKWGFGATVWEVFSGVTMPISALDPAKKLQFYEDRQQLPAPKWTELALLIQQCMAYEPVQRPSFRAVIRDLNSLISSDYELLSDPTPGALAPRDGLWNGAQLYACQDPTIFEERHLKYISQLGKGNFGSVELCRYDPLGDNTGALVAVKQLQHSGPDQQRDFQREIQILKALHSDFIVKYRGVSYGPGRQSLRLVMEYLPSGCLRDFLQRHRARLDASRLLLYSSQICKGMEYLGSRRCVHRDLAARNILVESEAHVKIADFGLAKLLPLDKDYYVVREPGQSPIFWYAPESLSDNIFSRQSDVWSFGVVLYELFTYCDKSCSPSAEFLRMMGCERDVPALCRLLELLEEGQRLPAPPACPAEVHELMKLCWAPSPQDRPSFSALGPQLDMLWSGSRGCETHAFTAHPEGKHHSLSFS
Format: functional.

Assay [7] deals with Activated CDC42 kinase 1 (Homo sapiens, UniProt Q07912). Kind of assay: Navigating the Kinome. Panel member name: ACK1. Format: functional.
Assay [8] concerns the target Tyrosine-protein kinase ABL1 (Homo sapiens, UniProt P00519). Format: functional.
The target of assay [9] is Vascular endothelial growth factor receptor 2 (Homo sapiens, UniProt P35968). Format: functional.
In assay [10] the target is T4, cAMP-dependent protein kinase catalytic subunit PRKX (Homo sapiens, UniProt P51817).
T4 sequence (P51817 whole entry): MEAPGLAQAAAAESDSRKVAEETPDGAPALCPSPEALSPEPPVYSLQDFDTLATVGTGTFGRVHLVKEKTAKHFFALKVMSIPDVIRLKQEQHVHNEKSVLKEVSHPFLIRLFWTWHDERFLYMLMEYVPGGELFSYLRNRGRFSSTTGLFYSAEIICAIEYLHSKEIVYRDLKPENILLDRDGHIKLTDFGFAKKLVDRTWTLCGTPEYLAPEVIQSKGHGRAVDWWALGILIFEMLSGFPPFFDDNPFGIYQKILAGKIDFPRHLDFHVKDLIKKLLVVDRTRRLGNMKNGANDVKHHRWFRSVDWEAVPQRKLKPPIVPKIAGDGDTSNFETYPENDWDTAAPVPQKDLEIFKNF
Format: functional.

The target in assay [11] is Leukocyte tyrosine kinase receptor (Homo sapiens, UniProt P29376). Nature of the assay: Navigating the Kinome. Panel member name: LTK. Format: functional.

The structures appear in SMILES notation. Active and inactive are the calls of the source.

Activated CDC42 kinase 1, sequence (Q07912 whole entry): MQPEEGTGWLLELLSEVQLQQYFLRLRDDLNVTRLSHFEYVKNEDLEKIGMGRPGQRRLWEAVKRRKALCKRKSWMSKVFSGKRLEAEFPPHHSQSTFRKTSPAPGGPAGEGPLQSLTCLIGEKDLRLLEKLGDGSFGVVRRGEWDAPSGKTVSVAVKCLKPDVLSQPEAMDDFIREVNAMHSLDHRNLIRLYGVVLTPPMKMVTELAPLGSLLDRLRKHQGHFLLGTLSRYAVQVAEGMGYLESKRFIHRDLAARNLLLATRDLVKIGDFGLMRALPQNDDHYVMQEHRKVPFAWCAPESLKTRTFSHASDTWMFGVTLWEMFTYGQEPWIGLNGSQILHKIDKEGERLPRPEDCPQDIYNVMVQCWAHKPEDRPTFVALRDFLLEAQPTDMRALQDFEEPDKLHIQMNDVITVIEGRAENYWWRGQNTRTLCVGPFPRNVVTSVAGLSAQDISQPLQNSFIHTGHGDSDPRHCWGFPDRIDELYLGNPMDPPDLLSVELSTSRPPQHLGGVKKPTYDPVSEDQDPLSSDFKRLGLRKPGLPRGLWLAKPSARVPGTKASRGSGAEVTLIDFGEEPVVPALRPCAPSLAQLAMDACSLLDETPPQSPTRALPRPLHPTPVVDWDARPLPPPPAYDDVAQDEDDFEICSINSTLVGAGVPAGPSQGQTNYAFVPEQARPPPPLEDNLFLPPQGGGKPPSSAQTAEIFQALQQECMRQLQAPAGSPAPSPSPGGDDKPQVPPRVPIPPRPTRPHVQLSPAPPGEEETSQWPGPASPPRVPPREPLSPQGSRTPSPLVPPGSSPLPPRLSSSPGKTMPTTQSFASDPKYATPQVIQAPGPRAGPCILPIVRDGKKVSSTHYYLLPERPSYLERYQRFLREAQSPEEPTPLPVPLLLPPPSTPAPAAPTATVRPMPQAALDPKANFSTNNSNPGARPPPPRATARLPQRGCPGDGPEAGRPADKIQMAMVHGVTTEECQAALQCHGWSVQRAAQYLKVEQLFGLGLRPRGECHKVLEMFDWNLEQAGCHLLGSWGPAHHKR
Leukocyte tyrosine kinase receptor, sequence (P29376 whole entry): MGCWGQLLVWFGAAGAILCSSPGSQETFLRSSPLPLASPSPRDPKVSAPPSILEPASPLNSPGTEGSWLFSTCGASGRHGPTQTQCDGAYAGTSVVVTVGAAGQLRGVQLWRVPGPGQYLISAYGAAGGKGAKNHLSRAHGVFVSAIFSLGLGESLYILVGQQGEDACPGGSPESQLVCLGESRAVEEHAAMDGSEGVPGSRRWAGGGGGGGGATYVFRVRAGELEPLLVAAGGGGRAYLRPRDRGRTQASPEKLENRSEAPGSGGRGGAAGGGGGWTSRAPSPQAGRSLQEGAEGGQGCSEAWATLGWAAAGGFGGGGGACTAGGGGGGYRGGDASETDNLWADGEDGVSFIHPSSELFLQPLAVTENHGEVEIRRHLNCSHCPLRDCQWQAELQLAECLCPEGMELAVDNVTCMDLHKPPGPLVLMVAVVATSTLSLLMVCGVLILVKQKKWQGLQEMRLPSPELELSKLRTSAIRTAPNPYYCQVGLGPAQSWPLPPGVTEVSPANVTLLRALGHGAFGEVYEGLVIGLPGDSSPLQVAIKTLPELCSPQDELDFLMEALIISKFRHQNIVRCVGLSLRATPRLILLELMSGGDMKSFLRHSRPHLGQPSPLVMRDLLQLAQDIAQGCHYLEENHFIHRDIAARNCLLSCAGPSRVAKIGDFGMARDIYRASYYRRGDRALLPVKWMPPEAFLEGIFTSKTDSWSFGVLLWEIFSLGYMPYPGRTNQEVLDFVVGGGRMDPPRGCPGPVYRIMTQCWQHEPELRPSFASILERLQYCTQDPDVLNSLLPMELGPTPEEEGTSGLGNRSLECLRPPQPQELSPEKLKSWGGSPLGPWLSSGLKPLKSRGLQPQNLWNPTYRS
Tyrosine-protein kinase ABL1, sequence (P00519 whole entry): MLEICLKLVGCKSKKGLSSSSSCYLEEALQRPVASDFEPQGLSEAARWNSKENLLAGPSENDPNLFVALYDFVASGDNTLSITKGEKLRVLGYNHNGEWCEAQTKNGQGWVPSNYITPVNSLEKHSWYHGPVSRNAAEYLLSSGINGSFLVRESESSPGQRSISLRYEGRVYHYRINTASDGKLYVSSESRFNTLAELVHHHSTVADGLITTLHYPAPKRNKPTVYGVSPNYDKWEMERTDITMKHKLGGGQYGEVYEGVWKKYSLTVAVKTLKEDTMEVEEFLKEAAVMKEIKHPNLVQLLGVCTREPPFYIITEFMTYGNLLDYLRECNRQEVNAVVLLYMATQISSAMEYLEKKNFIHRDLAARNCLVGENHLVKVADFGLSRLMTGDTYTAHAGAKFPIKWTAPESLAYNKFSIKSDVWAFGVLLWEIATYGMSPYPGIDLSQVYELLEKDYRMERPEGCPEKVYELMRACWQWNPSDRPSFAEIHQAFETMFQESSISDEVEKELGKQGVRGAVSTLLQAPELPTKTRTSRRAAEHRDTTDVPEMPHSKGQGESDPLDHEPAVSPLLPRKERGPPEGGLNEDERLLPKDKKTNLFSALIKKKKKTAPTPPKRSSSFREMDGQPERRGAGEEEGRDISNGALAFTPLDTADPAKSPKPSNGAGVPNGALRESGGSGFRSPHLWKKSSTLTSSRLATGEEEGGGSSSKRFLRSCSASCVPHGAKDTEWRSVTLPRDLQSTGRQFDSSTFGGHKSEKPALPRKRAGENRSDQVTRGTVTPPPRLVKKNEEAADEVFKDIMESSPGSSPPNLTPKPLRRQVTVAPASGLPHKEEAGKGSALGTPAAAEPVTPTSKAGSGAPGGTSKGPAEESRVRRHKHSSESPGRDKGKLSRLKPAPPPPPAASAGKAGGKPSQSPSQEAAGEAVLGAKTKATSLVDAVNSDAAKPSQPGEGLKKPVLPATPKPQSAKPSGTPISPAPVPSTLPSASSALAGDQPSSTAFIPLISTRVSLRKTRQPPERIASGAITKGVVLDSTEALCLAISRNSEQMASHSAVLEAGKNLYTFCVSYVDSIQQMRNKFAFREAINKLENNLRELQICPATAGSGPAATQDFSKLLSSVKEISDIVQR
Vascular endothelial growth factor receptor 2, sequence (P35968 whole entry): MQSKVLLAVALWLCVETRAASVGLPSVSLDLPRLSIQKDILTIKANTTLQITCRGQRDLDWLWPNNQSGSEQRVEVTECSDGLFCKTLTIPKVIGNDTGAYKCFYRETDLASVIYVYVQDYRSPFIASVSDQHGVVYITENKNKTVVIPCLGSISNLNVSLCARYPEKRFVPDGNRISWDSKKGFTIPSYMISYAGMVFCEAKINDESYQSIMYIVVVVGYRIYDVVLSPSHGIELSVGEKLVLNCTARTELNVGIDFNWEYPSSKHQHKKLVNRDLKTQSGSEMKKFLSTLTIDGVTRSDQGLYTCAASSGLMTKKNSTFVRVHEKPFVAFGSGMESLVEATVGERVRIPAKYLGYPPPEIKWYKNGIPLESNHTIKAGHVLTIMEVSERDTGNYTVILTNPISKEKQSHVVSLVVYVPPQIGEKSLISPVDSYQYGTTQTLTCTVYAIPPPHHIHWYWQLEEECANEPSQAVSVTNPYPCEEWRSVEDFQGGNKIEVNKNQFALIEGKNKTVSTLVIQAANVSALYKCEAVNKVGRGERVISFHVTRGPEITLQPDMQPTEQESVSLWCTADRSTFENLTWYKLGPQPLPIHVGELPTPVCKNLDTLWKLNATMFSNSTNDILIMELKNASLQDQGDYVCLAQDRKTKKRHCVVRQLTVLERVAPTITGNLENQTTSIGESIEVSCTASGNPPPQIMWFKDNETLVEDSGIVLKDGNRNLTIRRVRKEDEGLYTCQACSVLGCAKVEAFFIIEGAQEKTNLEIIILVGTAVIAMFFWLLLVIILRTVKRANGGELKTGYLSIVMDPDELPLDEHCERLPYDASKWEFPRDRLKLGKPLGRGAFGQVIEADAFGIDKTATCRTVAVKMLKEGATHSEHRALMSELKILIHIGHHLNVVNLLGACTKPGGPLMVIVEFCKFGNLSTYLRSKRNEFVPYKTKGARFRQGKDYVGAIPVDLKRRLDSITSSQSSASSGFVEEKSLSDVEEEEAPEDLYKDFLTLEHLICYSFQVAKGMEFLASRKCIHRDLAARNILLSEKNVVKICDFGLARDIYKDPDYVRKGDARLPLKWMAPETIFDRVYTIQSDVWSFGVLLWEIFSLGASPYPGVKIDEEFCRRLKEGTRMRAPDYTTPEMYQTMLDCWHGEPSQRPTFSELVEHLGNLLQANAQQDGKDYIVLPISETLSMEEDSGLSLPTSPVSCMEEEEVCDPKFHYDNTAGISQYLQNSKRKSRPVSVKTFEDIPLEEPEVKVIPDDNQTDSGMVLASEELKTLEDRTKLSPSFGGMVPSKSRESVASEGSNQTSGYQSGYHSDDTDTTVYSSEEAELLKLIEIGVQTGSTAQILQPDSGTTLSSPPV
Aurora kinase A, sequence (O14965 whole entry): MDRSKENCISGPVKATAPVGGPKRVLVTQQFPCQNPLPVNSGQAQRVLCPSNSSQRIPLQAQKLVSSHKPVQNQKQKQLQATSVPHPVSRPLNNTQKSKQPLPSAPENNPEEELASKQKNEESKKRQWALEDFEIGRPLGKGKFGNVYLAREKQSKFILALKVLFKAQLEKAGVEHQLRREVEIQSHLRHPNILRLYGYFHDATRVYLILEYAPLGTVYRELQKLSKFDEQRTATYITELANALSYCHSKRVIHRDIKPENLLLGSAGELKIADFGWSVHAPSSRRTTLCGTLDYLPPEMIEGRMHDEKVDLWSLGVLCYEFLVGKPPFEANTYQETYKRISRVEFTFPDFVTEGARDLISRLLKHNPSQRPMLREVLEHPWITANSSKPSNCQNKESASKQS

On to `CC(C)CC(=O)NC(c1cccs1)c1ccc2cccnc2c1O` (stereo not drawn), for which the AC50 (as a rule, the concentration giving half of the maximal activity seen) in assay [1] is 3.71 µM (active).

For the molecule `CCOC(=O)c1ccc(NC2=CC(=O)C(=O)c3ccccc32)cc1`, the EC50 (usually the concentration at which the effect is half-maximal) in assay [2] is 9.93 µM (active). For the same molecule, the AC50 in assay [1] is 4.3 µM (active).

For `CCCCCCCCCCCCCCCC[N+](C)(C)C`, the EC50 in assay [2] is 19.6 µM (active).

As for `NC1CCC(Nc2nc(Cl)cc(-c3c[nH]c4ncccc34)n2)CC1` (stereo not drawn), the Ki (in general, the dissociation constant of the complex between target and ligand, obtained from inhibition or displacement) in assay [3] is 2 µM (active); in [4], 2.51 µM (active); in assay [5] it was > 1.58 µM (inactive); in [6], 158 nM (active); in [7], 2 µM (active); in assay [8], 1.58 µM (active). Besides, the Ki in [9] is 794 nM (active); in [10], 3.16 nM (active); in [11] it was 126 nM (active). The pKi (in general, −log10 of the Ki, conventionally taken in molar units) came to 6.8 in [6]; 5.7 in [7]; 5.8 in assay [8]; 6.1 in assay [9]; 8.5 in assay [10]; 6.9 in assay [11].

For the molecule `O=C(O)C1CN(Cc2ccc(OCc3ccccc3)cc2Cl)C1`, the Ki in [3] was > 3.16 µM (inactive); in assay [4], > 3.16 µM (inactive); in assay [5] it was > 1.58 µM (inactive); in [6], > 5010 nM (inactive); in [7] it was > 3.98 µM (inactive); in assay [8] it was > 2.51 µM (inactive). Moreover, the values for the Ki in [9], in assay [10] and in assay [11] were > 2510 nM (inactive), 1260 nM (active) and > 2510 nM (inactive), respectively.
